Test results: paper PMC7253457, “Nitrite modulates aminoglycoside tolerance by inhibiting cytochrome heme-copper oxidase in bacteria” (Communications Biology, 2020)

Columns and labels:
[1] = biological target: T1, E. coli bo3 (cytochrome bo3 oxidase) (Escherichia coli, UniProt P0ABI8); assay: biochemical
T1 construct: gene cyoB
Description: oxygen consumption of membranes, O2 electrode on E. coli bo3 (cytochrome bo3 oxidase)

[2] = biological target: T2, S. oneidensis cbb3 (heme-copper oxidase cbb3) (Shewanella oneidensis, UniProt Q8EEL5); conditions: read-out: IC50(NO2^-); 5 mM NADH as electron donor; ~70 μM O2; membranes of delta-cyd strain
T2 construct: gene ccoN
Description: oxygen consumption of membranes, O2 electrode on S. oneidensis cbb3 (heme-copper oxidase cbb3)

[3] = biological target: T3, S. aureus aa3 (cytochrome aa3 oxidase) (Staphylococcus aureus, UniProt Q7A699); assay: biochemical
T3 construct: gene qoxB
Description: oxygen consumption of membranes, O2 electrode on S. aureus aa3 (cytochrome aa3 oxidase)

[4] = biological target: T4, bd (bd-type quinol oxidase) (Shewanella oneidensis, UniProt Q8EC58); conditions: read-out: IC50(NO2^-); 5 mM NADH as electron donor; ~70 μM O2; membranes of delta-cco strain
T4 construct: gene cydA
Description: oxygen consumption of membranes, O2 electrode on bd (bd-type quinol oxidase)

T3 sequence (Q7A699 whole entry): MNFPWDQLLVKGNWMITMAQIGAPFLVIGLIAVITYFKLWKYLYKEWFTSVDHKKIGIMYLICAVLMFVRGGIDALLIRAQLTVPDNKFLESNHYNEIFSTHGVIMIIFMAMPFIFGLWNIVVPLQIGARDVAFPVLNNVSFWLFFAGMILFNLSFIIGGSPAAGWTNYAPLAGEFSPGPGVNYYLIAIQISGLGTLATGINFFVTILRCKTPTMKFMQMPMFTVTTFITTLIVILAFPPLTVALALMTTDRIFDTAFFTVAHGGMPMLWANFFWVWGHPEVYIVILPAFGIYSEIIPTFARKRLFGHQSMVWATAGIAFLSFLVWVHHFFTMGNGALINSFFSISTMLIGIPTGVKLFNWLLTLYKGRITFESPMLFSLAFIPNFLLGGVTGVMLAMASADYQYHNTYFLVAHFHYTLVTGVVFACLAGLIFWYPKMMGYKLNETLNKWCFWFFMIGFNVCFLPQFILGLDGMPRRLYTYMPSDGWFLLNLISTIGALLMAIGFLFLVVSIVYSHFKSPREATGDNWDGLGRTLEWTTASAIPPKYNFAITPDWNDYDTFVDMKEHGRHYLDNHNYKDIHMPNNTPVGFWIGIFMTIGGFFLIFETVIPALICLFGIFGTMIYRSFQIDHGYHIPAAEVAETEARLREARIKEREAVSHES
T3 sequence (Q7A698 20-366 partner): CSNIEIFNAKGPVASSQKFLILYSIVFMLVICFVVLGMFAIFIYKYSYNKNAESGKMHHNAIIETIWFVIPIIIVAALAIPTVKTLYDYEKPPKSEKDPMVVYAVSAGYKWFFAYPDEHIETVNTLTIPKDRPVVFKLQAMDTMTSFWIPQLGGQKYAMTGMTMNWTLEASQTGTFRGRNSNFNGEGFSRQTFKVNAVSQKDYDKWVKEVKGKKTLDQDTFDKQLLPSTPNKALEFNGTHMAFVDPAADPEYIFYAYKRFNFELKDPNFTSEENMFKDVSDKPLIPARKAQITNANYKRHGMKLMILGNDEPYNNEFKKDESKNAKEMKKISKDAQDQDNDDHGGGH
T3 sequence (Q7A6A0 whole entry partner): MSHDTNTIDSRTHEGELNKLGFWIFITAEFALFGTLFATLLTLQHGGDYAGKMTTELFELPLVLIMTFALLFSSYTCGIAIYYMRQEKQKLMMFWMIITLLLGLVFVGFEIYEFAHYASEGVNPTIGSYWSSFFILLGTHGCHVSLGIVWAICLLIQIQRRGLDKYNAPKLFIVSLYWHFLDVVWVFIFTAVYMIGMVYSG
T3 sequence (Q7A6A1 whole entry partner): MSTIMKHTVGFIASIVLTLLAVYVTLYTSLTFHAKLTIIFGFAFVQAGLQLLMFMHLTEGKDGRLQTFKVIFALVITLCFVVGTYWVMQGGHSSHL
T2 sequence (Q8EEL5 1-478): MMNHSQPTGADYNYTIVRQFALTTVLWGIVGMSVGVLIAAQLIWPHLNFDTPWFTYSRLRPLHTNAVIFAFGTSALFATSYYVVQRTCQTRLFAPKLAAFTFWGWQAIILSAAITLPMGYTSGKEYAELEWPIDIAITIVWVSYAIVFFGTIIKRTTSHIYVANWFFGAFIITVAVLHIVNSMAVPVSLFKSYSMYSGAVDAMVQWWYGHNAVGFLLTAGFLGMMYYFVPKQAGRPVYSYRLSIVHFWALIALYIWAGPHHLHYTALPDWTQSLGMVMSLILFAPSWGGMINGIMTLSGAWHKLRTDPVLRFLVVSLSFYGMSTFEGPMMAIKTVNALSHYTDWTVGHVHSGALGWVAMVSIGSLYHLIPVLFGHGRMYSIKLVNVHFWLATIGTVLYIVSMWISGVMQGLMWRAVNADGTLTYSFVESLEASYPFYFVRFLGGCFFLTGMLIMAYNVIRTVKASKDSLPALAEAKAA
T2 sequence (Q8EEL6 1-208 partner): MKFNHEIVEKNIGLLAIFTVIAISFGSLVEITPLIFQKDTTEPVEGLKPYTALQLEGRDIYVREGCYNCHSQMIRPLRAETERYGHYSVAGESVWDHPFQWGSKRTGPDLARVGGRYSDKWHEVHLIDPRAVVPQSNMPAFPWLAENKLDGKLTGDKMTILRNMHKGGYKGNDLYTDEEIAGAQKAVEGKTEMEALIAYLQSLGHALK
T2 sequence (Q8EEL8 1-322 partner): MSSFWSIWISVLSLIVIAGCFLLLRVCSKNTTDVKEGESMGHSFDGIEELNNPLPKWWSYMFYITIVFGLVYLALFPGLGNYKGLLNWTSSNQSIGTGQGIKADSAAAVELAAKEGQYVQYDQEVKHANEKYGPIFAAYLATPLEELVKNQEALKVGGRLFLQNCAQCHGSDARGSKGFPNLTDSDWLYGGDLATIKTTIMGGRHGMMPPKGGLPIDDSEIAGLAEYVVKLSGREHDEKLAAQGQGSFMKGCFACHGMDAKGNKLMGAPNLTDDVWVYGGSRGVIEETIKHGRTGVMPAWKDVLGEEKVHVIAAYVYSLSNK
T2 sequence (Q8EEL7 1-58 partner): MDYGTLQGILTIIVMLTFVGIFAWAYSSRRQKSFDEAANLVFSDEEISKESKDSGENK
T4 sequence (Q8EC58 1-518): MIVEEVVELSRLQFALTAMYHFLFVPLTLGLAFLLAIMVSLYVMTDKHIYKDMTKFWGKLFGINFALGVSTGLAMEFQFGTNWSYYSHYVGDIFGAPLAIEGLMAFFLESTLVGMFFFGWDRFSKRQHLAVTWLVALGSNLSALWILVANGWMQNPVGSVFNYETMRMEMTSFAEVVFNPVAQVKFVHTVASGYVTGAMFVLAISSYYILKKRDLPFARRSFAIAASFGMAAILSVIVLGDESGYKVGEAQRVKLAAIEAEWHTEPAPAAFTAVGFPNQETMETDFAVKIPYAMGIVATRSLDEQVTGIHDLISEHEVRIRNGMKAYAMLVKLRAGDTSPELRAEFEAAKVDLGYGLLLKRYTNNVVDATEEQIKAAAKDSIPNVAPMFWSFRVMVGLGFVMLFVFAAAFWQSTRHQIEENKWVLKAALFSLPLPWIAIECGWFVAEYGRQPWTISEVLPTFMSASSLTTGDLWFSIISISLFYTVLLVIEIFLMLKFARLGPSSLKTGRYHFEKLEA
T4 sequence (Q8EC59 1-379 partner): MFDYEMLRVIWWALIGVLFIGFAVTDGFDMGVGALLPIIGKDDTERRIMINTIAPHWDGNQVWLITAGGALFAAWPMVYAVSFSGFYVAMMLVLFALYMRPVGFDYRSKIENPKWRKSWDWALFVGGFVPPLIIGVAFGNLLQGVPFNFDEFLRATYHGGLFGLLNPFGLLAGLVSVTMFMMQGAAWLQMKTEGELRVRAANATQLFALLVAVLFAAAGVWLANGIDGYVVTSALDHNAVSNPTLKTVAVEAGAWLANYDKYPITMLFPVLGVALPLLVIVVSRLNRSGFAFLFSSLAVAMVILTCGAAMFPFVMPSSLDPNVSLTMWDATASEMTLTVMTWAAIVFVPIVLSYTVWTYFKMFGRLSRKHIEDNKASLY
T1 sequence (P0ABI8 whole entry): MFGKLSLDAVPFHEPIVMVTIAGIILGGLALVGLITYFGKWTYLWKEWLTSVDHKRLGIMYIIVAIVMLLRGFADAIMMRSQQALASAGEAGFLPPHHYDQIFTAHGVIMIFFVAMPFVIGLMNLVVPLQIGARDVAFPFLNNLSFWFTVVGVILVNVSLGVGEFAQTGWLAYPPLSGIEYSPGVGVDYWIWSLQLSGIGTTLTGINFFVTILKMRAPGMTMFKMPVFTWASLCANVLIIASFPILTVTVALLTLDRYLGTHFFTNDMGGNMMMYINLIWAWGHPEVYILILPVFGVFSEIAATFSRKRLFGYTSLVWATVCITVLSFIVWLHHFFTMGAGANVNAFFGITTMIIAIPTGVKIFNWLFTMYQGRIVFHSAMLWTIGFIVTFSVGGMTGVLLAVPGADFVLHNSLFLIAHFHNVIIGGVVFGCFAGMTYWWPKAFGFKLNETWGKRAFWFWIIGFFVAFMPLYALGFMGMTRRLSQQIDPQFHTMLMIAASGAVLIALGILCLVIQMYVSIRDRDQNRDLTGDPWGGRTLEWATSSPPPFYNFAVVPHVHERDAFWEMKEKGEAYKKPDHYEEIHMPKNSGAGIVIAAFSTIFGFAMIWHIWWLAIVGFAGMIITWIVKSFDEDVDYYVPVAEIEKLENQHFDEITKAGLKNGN
T1 sequence (P0ABJ1 25-315 partner): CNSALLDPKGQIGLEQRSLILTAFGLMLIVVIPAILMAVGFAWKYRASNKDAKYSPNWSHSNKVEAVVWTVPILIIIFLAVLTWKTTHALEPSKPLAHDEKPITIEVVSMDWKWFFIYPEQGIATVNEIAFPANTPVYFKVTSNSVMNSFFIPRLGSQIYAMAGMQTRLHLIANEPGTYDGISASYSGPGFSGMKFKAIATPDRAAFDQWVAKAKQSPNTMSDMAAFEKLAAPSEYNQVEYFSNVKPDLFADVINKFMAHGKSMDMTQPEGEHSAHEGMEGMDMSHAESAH
T1 sequence (P0ABJ3 whole entry partner): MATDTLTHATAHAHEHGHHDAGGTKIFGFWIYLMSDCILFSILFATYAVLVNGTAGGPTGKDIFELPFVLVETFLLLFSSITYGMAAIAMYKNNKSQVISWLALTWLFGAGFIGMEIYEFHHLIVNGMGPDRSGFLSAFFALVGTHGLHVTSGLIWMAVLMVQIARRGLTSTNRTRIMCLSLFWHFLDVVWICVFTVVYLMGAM
T1 sequence (P0ABJ6 whole entry partner): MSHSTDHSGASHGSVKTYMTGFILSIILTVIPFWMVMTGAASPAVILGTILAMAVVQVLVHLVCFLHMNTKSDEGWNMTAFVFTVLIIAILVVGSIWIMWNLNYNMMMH

Molecule `O=NO` [nitrite] has an IC50 [1] of 120 ± 13 µM, an IC50 [2] of 57 ± 6 µM and an IC50 [3] of 137 ± 15 µM. The IC50 [4] was 207 ± 18 µM.
